Data on two molecules can be found in US8642622B2, “Piperidinyl compound as a modulator of chemokine receptor activity” (Bristol-Myers Squibb Company, priority 2010, dated 2014).

Data set [1] concerns the target T1, human cardiac sodium channel, SCNSA (Homo sapiens, UniProt Q14524).
T1 construct: expressed in transfected cells; host or cells: HEK-293
Put plainly: Sodium channel whole-cell patch-clamp assay. Format: cell-based. To be noted: HEK293, HEK-293, protein-free buffer, read-out: Na channel, % inh. As for the experimental part: Whole-cell patch-clamp was used to directly measure inward sodium currents in HEK-293 cells expressing the human cardiac sodium channel, SCNSA. After reach steady-state effect in the presence of drug, rate-dependence was assessed by stimulation at frequencies of 1 Hz and 4 Hz. Experiments were carried out using an aqueous buffer at pH 7.4 and at room temperature. There is no protein in the buffer and drug concentrations reported are nominal free drug levels. Test article was evaluated up to 10 μM (protein-free buffer). […] Data is reported as percent inhibition at a fixed concentration.

The nature of data set [2]: Electrocardiography in anesthetized rabbits (rabbit in vivo EP effect). The settings on record: for QT effect Dose: i.v. infusion 3, 10, 30 mg/kg; for QTcf, delta: change from pre-drug baseline. The procedure:
A dose-response study of test compound was conducted in anesthetized rabbits to assess the cardiac electrophysiologic profile established in the cellular ion channel assays.
Experiments were performed in propofol-fentanyl anesthetized closed-chest male rabbits. A body surface electrocardiogram (ECG) and an intra-cardiac His-bundle electrogram were continuously monitored and recorded during the studies, using a PoNeMah system and a Prucka electrophysiological recording system, respectively. Test compound was prepared on the day of study in a vehicle of PEG400:ethanol:water (1:1:1) at a dosing concentration of 30 mg/mL. Test compound (n=3) or vehicle (n=3) was given intravenously over 5 minutes via an infusion pump at incremental doses of 3, 10 and 30 mg/kg. The interval between doses was 10 minutes, allowing for a 5-minute test agent infusion and a 5-minute rest period. Blood was sampled at baseline (pre-drug infusion) and immediately at the end of each infusion. For the 30 mg/kg dose, additional blood samples were taken at 10, 20 and 30 minutes after the end of infusion.
PR interval, QRS duration and QT interval were averaged from a 1 minute ECG recording period at time of blood sampling. QT interval was corrected for heart rate effects using both Fridericia (QTcf) and Van der Water (QTcv) formulae. AH and HV intervals, representing A-V node conduction and His-Purkinje conduction, respectively, were assessed by manual measurements from the His-bundle electrogram. Data were expressed as percent change from pre-drug baseline (mean±SEM) for PR, QRS, AH and HV intervals as well as delta change from the pre-drug infusion baseline (mean±SEM) for QTc intervals. Changes of 10% in PR, QRS, and AH intervals, and 20% in HV interval, as well as >10 ms in QTc interval are considered significant based on experience with the model.

The nature of data set [3]: Single-dose pharmacokinetics in rats. Format: in vivo. The settings on record: for clearance / bioavailability: male, Sprague-Dawley, rat, plasma; for clearance: intravenous; for bioavailability: po. The procedure: Serial blood samples were collected for all studies from the jugular vein at various time points post dose (0.17 (or 0.25 for oral), 0.5, 0.75, 1, 2, 4, 6, 8 and 24 h, for example). Plasma samples were analyzed by LC-MS/MS.
Additional studies evaluating suspensions of crystalline drug substance in aqueous medium were performed as described above.

Data set [4] is described as follows: Single-dose pharmacokinetics in dogs. The class given is in vivo. The settings on record: for clearance: intravenous. The procedure: Serial blood samples were collected for all studies at various time points post dose (0.17 (or 0.25 for oral), 0.5, 0.75, 1, 2, 4, 6, 8 and 24 h, for example). Plasma samples were analyzed by LC-MS/MS.
Where [5] appears, read: crystalline suspension in aqueous medium, read-out: Relative bioavailability when dosed as a crystalline suspension.

Bounds are passed on as bounds.

T1 sequence (Q14524 whole entry): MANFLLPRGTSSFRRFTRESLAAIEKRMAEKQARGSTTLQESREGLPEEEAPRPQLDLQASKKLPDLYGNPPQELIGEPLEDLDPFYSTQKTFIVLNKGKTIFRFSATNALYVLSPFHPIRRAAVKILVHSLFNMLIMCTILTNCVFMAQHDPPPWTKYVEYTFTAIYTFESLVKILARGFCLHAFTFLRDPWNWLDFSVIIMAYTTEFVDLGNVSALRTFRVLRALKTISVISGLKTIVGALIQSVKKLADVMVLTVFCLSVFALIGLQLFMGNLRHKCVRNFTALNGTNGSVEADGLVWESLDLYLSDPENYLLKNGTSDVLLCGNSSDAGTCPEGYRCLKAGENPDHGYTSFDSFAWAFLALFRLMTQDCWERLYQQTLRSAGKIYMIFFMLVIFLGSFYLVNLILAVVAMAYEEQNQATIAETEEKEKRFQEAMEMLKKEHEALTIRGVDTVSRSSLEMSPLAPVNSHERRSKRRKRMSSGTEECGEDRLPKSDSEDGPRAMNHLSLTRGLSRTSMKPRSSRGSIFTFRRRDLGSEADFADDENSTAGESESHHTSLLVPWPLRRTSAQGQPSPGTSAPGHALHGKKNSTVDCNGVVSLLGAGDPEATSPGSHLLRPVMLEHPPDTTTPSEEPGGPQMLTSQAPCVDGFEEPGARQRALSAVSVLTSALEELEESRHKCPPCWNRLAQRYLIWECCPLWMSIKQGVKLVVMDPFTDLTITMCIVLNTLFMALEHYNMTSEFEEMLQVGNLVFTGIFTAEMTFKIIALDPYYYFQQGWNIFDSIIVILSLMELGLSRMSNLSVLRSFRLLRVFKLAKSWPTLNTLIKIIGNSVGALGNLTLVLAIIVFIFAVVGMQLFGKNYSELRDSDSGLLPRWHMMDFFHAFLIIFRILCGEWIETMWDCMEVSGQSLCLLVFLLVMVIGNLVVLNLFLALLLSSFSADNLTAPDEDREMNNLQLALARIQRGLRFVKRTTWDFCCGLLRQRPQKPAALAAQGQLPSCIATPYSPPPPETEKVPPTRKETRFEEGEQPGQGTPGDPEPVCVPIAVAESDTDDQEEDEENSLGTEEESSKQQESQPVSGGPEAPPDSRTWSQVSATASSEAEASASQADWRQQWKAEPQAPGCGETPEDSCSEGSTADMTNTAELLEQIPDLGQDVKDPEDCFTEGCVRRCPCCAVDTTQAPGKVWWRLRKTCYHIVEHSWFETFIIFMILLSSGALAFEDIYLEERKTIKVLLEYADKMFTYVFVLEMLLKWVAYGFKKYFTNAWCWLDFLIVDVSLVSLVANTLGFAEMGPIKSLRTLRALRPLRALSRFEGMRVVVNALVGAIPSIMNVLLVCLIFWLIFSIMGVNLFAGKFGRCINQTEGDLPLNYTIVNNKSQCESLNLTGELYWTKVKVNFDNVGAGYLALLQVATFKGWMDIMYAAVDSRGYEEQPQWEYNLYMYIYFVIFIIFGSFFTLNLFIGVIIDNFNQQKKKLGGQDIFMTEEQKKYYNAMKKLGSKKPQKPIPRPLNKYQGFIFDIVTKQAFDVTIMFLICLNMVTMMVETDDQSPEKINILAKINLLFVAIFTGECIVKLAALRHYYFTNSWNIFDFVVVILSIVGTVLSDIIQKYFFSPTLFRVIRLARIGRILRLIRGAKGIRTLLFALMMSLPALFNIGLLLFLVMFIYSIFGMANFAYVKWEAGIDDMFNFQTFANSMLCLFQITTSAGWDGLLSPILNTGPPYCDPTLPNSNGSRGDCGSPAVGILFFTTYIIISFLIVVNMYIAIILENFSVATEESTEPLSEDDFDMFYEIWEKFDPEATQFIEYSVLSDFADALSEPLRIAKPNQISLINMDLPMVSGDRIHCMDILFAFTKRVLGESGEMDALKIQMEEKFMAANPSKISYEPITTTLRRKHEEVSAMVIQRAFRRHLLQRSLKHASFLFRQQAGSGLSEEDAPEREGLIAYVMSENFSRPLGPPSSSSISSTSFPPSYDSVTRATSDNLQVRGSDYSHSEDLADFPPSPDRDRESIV

Take `CC(C)[C@@H](NC(=O)c1cccc(S(N)(=O)=O)c1)C(=O)N1CC[C@](O)(c2ccc(Cl)cc2)C(C)(C)C1` [Example 491]: the inhibition at 10 µM in data set [1] is 13%. In data set [2], the “Cmax: Free drug (at NOEL dose)” value stood at 3.1 µM, the “Cmax: Free drug (at QT effect dose)” value was found to be 5.5 µM and the “QT effect Dose” value was determined as 30 mg/kg. Besides, in data set [2] (i.v. infusion), the NOEL dose came to 10 mg/kg and the “QTcf, delta” value is “+17 ms”. In data set [3], this molecule showed a clearance of 67 mL/min/kg. The bioavailability in data set [3] (setting [5]) was 0%. Further, the bioavailability in data set [3] (oral solution, read-out: Rat oral bioavailability when dosed as solution) was 23%. The clearance in data set [4] (male, beagle, dog, plasma) came out at 7.9 mL/min/kg. Moreover, the bioavailability in data set [4] (male, beagle, plasma, dog, oral solution, read-out: dog oral bioavailability when dosed as solution) was 100%.
With `CC(C)[C@@H](NC(=O)[C@@H]1CC[C@@H](O)C1)C(=O)N1CC[C@](O)(c2ccc(Cl)cc2)C(C)(C)C1` [Example 572], the inhibition at 10 µM in data set [1] is 25%. In data set [2], the “Cmax: Free drug (at NOEL dose)” value was less than 6.3 µM, the “Cmax: Free drug (at QT effect dose)” value turned out to be 6.3 µM and the “QT effect Dose” value is reported as 10 mg/kg. Moreover, the “QTcf, delta” value in data set [2] (i.v. infusion) was “+22 ms”. For the same molecule, the clearance in data set [3] was 29 mL/min/kg. The bioavailability in data set [3] (setting [5]) was more than 90%. Further, the “Rat oral bioavailability when dosed as solution” value in data set [3] (oral solution) is 37%. Further, the clearance in data set [4] (male, beagle, dog, plasma) came to 4.9 mL/min/kg. In data set [4] (oral solution), the “dog oral bioavailability when dosed as solution” value amounted to 72.

Broadly, the clearance is a measure of how efficiently the substance is removed, as volume per time. Usually bioavailability stands for the share of a dose that reaches the circulation, judged against a reference dose that is usually intravenous.
